Broadly, the Ki is a dissociation constant, usually derived from enzyme kinetics or from competition with a known ligand. A low value points to a stronger hold on the target.

The source of these data is patent US20210047304A1, “Bromodomain Inhibitors” (AbbVie Inc., priority 2016, published 2021).

For the experiment, the target named is BRD4 (BDI_K57-E168) (Homo sapiens, UniProt O60885). Put plainly: TR-FRET bromodomain binding assay, BRD4 BDI. In general terms: In TR-FRET formats the signal depends on donor and acceptor labels being close together.
Regarding `Cc1cc(F)cc(C)c1Oc1ccc(C(C)(C)O)cc1-c1cn(C)c(=O)cc1O[C@H]1CC[C@@H](NNC(=O)OC(C)(C)C)CC1` [Example 107, tert-butyl 2-[cis-4-({5-[2-(4-fluoro-2,6-dimethylphenoxy)-5-(2-hydroxypropan-2-yl)phenyl]-1-methyl-2-oxo-1,2-dihydropyridin-4-yl}oxy)cyclohexyl]hydrazine-1-carboxylate], the inhibition constant (Ki) came out at 1790 nM.
`Cc1cccc(C)c1Oc1ccc(C(C)(C)O)cc1-c1cn(C)c(=O)cc1NC1CCN(C(=O)OC(C)(C)C)C1` (centres unmarked) [Example 11, tert-butyl 3-({5-[2-(2,6-dimethylphenoxy)-5-(2-hydroxypropan-2-yl)phenyl]-1-methyl-2-oxo-1,2-dihydropyridin-4-yl}amino)pyrrolidine-1-carboxylate]: the Ki came to 1270 nM.
The compound `CC(=O)C(=O)N[C@H]1CC[C@H](Oc2cc(=O)n(C)cc2-c2cc(C(C)(C)O)ccc2Oc2c(C)cc(F)cc2C)CC1` [Example 56, N-[trans-4-({5-[2-(4-fluoro-2,6-dimethylphenoxy)-5-(2-hydroxypropan-2-yl)phenyl]-1-methyl-2-oxo-1,2-dihydropyridin-4-yl}oxy)cyclohexyl]-2-oxopropanamide] displayed a Ki of 2430 nM.
For `Cc1cc(F)cc(C)c1Oc1ccc(C(C)(C)O)cc1-c1cn(C)c(=O)cc1O[C@H]1CC[C@H](N(C)C(=O)C(C)(C)C)CC1` [Example 59, N-[trans-4-({5-[2-(4-fluoro-2,6-dimethylphenoxy)-5-(2-hydroxypropan-2-yl)phenyl]-1-methyl-2-oxo-1,2-dihydropyridin-4-yl}oxy)cyclohexyl]-N,2,2-trimethylpropanamide], the Ki is 6550 nM.
For the compound `Cc1cc(F)cc(C)c1Oc1ccc(C(C)(C)O)cc1-c1cn(C)c(=O)cc1OC1CCC(C)(N2CCCC2=O)CC1` (stereo not drawn) [Example 34, 5-[2-(4-fluoro-2,6-dimethylphenoxy)-5-(2-hydroxypropan-2-yl)phenyl]-1-methyl-4-{[trans-4-methyl-4-(2-oxopyrrolidin-1-yl)cyclohexyl]oxy}pyridin-2(1H)-one], the inhibition constant Ki was 890 nM.
